Assays:
[1] = Fluorescence quantum yield of the dye in aqueous solution; type: physicochemical; conditions: no protein
Description: NMR spectra were collected on a Varian 300 Gemini spectrometer. Mass spectrometric data were obtained on a HP1100LC/MSD mass spectrometry. HRMS data were performed on a TOF MS system. UV-Vis spectra were acquired on a Hewlett-Packard 8453 diode-array spectrometer. Fluorescence spectra were obtained on a HORIBA Jobin Yvon NanoLog spectrometer. The quantum yield of fluorescence of the sample was measured using bis(3-ethylbenzothiazol-2-ylidene)squaraine in ethanol (Φ=0.21) as a standard and calculated using equation (1): […]
Where Φunk is i the fluorescence quantum yield of the sample, Φstd is the fluorescence quantum yield of the standard, Iunk and Istd are the integrated emission intensities of the sample and the standard, respectively, Aunk and Astd are the absorbance of the sample and the standard at the excitation wavelength, respectively, and nunk and nstd are the refractive indexes of the corresponding solution.
In the presence of the anionic surfactant (sodium dodecyl sulfate, SDS) (1.7 mM or 0.05% wt), the fluorescence signals are further decreased by a factor of about 3. […] The emission signals at ˜684 nm is assigned to the monomeric 1b, as the fluorescence of squaraine dye typically has a small Stokes' shift (about 10-30 nm). […] Similar fluorescence enhancement is also observed from 1a and 1c after the addition of BSA. […]

BSA [2] = target: T1, BSA (Bos taurus, UniProt P02769); experiment: Fluorescence response of DNSA-SQ to BSA in aqueous solution without aggregation agent; type: binding, bovine
T1 construct: purchased Acros Chemical
T1 sequence (P02769 25-607): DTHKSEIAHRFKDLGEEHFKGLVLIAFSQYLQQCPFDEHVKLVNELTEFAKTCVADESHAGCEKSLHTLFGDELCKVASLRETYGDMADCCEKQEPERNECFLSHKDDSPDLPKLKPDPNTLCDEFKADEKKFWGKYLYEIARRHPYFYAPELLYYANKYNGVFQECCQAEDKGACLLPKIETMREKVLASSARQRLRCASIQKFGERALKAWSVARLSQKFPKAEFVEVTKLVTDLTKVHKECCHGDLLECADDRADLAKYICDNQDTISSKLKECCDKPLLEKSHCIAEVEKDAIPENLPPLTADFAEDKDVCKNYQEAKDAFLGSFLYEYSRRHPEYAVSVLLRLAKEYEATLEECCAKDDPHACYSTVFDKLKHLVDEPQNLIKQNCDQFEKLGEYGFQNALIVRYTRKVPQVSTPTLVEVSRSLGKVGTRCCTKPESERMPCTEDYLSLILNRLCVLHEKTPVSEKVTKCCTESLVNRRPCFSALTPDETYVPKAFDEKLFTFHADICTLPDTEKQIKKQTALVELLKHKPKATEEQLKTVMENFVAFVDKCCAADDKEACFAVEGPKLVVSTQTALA
Description: (§1) With the 1:1 binding model from fitting of absorption titration spectra, the dissociation constant for BSA was estimated to be 9.35×10^−6 M upon titration with BSA in aqueous solution. In sharp contrast, there is no response to BSA in aqueous solution for 1b, as its binding to BSA requires addition of surfactant SDS or graphene.
(§2) The fluorescence enhancement upon binding BSA reached over 140-fold, which was quite large in comparison with those being reported. The detection limit was 1 μg/mL of BSA (signal-to-noise ratio was 3). The fluorescence response of DNSA-SQ to other proteins in PBS was also investigated. […] The observed specific binding to site I can be attributed to hydrophobic pockets of BSA in its structure.

BSA [3] = target: T1, BSA; experiment: Absorption titration with BSA, 1:1 binding model (dissociation constant); design: species or system bovine; conditions: absorption titration in aqueous solution
Description: as §1

lysozyme = target: T2, lysozyme (Gallus gallus, UniProt P00698); experiment: Fluorescence response to lysozyme in PBS; type: binding
T2 construct: purchased SIGMA
T2 sequence (P00698 19-147): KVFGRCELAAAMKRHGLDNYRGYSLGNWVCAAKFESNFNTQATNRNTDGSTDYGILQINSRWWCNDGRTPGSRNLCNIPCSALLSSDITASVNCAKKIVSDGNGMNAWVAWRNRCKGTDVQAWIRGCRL
Description: as §2

trypsin = experiment: Fluorescence response to trypsin in PBS; type: binding
Description: as §2

[4] = target: T3, formaldehyde dehydrogenase (Pseudomonas putida, UniProt P46154); experiment: Fluorescence response to formaldehyde dehydrogenase in PBS; type: binding
T3 construct: purchased SIGMA
T3 sequence (P46154 whole entry): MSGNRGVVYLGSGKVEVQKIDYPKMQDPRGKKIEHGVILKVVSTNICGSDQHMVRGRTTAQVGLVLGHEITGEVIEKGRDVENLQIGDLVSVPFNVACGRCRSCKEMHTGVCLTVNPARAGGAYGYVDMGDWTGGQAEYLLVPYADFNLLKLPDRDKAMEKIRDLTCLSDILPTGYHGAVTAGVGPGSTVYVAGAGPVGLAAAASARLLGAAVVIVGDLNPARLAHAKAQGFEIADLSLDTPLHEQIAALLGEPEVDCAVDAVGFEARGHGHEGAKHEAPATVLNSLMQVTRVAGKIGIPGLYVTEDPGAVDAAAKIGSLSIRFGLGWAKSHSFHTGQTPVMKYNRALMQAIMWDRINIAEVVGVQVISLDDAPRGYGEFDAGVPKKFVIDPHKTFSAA
Description: as §2

lipase = experiment: Fluorescence response to lipase in PBS; type: binding
Description: as §2

chymotrypsin = experiment: Fluorescence response to chymotrypsin in PBS; type: binding
Description: as §2

fibrinogen = target: T4, fibrinogen (Homo sapiens, UniProt P02671+P02675+P02679); experiment: Fluorescence response to fibrinogen in PBS; type: binding
T4 sequence (P02671 20-629 limits assumed): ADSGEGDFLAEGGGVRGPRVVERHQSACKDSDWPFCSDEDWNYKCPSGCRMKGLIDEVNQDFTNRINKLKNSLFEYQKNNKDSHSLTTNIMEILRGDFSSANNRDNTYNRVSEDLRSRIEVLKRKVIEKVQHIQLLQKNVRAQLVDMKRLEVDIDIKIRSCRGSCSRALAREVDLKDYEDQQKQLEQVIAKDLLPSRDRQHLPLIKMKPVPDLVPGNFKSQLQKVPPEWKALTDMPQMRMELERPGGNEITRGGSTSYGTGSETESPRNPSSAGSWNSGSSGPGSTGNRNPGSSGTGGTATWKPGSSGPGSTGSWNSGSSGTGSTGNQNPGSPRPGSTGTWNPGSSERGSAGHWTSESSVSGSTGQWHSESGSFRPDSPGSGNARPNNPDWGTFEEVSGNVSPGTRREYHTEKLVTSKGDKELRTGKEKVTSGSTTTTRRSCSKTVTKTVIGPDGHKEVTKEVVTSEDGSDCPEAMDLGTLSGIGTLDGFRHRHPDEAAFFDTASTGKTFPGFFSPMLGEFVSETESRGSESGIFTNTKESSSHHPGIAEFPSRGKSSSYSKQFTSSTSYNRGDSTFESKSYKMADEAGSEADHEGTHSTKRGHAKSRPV
T4 sequence (P02675 31-491): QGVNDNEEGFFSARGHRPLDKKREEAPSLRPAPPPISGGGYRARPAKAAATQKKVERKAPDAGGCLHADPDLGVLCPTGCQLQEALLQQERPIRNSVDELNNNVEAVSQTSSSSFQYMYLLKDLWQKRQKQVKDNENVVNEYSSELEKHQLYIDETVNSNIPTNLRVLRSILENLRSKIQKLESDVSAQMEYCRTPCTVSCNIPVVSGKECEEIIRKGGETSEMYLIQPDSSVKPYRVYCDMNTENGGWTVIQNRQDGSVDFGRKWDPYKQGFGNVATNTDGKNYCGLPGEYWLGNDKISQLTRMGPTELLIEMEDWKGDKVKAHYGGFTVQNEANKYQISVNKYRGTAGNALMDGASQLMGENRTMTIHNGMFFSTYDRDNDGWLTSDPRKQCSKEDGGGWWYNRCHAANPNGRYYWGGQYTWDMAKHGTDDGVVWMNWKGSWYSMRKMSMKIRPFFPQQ
T4 sequence (P02679 27-433 limits assumed): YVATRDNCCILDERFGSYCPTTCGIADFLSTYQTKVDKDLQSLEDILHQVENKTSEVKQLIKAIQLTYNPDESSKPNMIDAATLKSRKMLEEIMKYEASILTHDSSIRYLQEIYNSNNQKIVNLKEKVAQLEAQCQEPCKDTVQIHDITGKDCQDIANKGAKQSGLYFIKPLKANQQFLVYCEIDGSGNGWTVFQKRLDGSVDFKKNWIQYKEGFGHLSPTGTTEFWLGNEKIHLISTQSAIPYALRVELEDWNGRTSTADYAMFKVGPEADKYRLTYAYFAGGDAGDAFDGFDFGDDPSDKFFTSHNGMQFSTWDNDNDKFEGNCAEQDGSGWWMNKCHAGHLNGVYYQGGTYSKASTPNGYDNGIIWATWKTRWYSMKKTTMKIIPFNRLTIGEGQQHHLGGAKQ
Description: as §2

BSA site I and site II = target: T5, BSA site I and site II (Bos taurus, UniProt P02769); experiment: Site-selective ligand displacement from BSA/DNSA-SQ complex; type: binding, bovine
T5 construct: purchased Acros Chemical
T5 sequence (P02769 25-607): as the sequence (P02769 25-607) above
Description: The site-selective binding of BSA/DNSA-SQ was probed by employing a site selective binding ligand, which would result in decrease in fluorescence intensity when the squaraine dyes were displaced from a specific BSA binding site. […] The observed fluorescence increasing thus implies that the BSA conformation change as DP entered the site II, which stimulated interaction of BSA/DNSA-SQ at site I. It was noted that a squaraine dye can selectively bind BSA at site I (˜40%) and site II (˜60%) on the assumption of no dependency between Site I and II of BSA. Circular dichroism (CD) was also used to probe the proposed binding mechanism. Similar CD spectra usually represent a similar binding mode between the sensor and protein. […] Under the same conditions, the effect of DNSA-SQ on the CD spectrum of BSA was similar to that of DNSA. The result further supports that DNSA-SQ was binding to site I of BSA.
The response of a fluorescence probe at a specific site (such as site I), therefore, could also shed some light on the binding of the other site (e.g. site II). Study of this synergetic interaction between two binding sites could lead to improved understanding on the protein-dye interaction.

BSA [5] = target: T1, BSA; experiment: ESI travelling wave ion mobility mass spectrometry (TWIMS) of BSA-guest complexes; design: species or system bovine; conditions: 15+ charge state
Description: Ion mobility mass spectrometry, when coupled with ESI, can produce an array of multiply charged gas-phase ions from protein molecules in solution which is related to the solution-phase folded and unfolded conformation of the protein. The structural measurement, namely, collision cross-section, can be calculated from the drift time of each ion. Herein we use travelling wave ion mobility mass spectrometry (TWIMS) to detect the change of the protein conformation after different site selective binding guests were added in BSA buffer solution. TWIMS was performed under the same conditions to ensure minimal error for compassion. […] As shown in FIG. 19(c), the ions of DP were generated through the tandem MS of intact complex ions at 15+. Taking 15+ charge state for example, the mobility peak drift time tD=6.41, 6.80, 6.67 and 6.54 ms for BSA, BSA+DP, BSA+DNSA-SQ and BSA+DNSA, respectively. The corresponding experimental collision cross-sections (CCS) are 4298, 4364, 4342 and 4320 Å2 using standard curve. […] This finding is consistent with the fluorescence change discussed above, particularly for the fluorescence enhancement by adding DP to BSA/DNSA-SQ.

[6] = tested on: BSA injected into zebrafish embryos; experiment: DNSA-SQ labeling of live developing zebrafish embryos; type: in vivo
Description: (§3) The most attractive application for protein sensing is labeling and imaging in living organisms. Zebrafish have recently become an important model organism for the study of vertebrate imaging. This is because the embryos of zebrafish are transparent, allowing for clear observation of their organs without the need for dissection. The optical transparancy of zebrafish, therefore, provides a convenient organism for detection of ions by fluorescence microscopy. No published reports are found on the use of zebrafish for BSA fluorescence microscopy. Herein, DNSA-SQ was examined in developing zebrafish for its applicability. DNSA-SQ labeling was examined in developing zebrafish by adding DNSA-SQ to fish tank water (treatment lasted for one hour at room temperature). There was no labeling in control (i.e. without BSA supplement) embryos at 2.5 hours post fertilization (hpf, FIG. 20B), 36 hpf and 73 hpf (data not shown). […] At 73 hpf, the labeling was detected in the yolk and yolk extension (FIG. 20D), eye (FIG. 20E) and pigmented cells in the body trunk and tail regions (FIGS. 20G and H). […] The DNSA-SQ labeling pattern show good biocompatibility, excellent turn-on fluorescence.

zebrafish embryos/larvae = experiment: Toxicity to zebrafish embryos/larvae; type: in vivo
Description: as §3
Therefore DNSA-SQ was proving not toxic to the subjects. […]

[7] = dye in fish tank water, one hour, room temperature

Compound: CCN1C(=CC2=C([N-]S(=O)(=O)c3cccc4c(N(C)C)cccc34)C(=Cc3sc4ccccc4[n+]3CC)C2=O)Sc2ccccc21 [DNSA-SQ]
- fluorescence quantum yield φfl [1]: 1.0×10^−4
- fluorescence enhancement upon binding BSA (BSA [2]; 674 nm, no aggregation agent): over 140 fold
- detection limit of BSA (BSA [2]; signal-to-noise ratio 3): 1 µg/mL
- Kd (BSA [3]): 9.35 µM
- fluorescence change with lysozyme (lysozyme): no obvious fluorescence change
- fluorescence change with trypsin (trypsin): no obvious fluorescence change
- fluorescence change with formaldehyde dehydrogenase [4]: no obvious fluorescence change
- fluorescence change with lipase (lipase): no obvious fluorescence change
- fluorescence change with chymotrypsin (chymotrypsin): no obvious fluorescence change
- fluorescence change with fibrinogen (fibrinogen): no obvious fluorescence change
- fluorescence of BSA/DNSA-SQ complex on addition of site I ligand DNSA (BSA site I and site II; displacement by DNSA): did not result in fluorescence intensity change
- fluorescence of BSA/DNSA-SQ complex on addition of site II ligand DP (BSA site I and site II; displacement by DP): fluorescence intensity increasing
- BSA binding site selectivity (BSA site I and site II; displacement by site-selective ligands and mass spectra data): enters selectively at site I
- mobility peak drift time tD of BSA-guest complex (BSA [5]): 6.67 ms
- experimental collision cross-section (CCS) of BSA-guest complex (BSA [5]; standard curve): 4342 Å2
- labeling of control embryos without BSA supplement ([6]; 2.5, 36 and 73 hpf): no labeling
- labeling of BSA-injected embryos at 2.5 hpf [6, 7]: labeling of all dividing cells
- labeling of BSA-injected embryos at 73 hpf [6, 7]: confined BSA labeling
- cell membrane penetration ([6]; living zebrafish embryos): can easily penetrate through cell membranes
- size and shape of treated embryos/larvae compared to untreated (zebrafish embryos/larvae): appeared normal in size and shape
- toxicity to treated embryos/larvae (zebrafish embryos/larvae): not toxic

Reference: US9920020B2, “Using squaraine dyes as near infrared fluorescent sensors for protein detection” (The University of Akron, priority 2011, dated 2018)
